In patent US20230416240A1, “KAT6 TARGETING COMPOUNDS” (Prelude Therapeutics Incorporated, priority 2022, published 2023):

Experiments:
HiBit tagged KAT6A = biological target: T1, HiBit tagged KAT6A (Homo sapiens, UniProt Q92794); experiment: HiBit KAT6A Degradation Assessment; type: cell-based; conditions: HeLa cells with HiBit tagged KAT6A, 18 h of treatment, 9-point serial dilution
T1 construct: host or cells: HeLa
How it was run: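 HeLa cells expressing HiBiT-tagged KAT6A exposed to a 9-point compound dilution series for 18 h at 37 °C. KAT6A level read by HiBiT lytic luminescence, normalized to background and DMSO controls; DC50 and Dmax from four-parameter logistic fit.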

KAT6A = biological target: T2, KAT6A (Homo sapiens, UniProt Q92794); experiment: Western Blot KAT6A Degradation Assessment; type: cell-based; conditions: 0.1 μM compound, 24 hours of treatment, HCC1954 cell line, KAT6A normalized to GAPDH and DMSO
T2 construct: These studies were conducted in the HCC1954 cell line which harbors a KAT6A copy number amplification; endogenous in cells; host or cells: HCC1954
T2 sequence (Q92794 whole entry): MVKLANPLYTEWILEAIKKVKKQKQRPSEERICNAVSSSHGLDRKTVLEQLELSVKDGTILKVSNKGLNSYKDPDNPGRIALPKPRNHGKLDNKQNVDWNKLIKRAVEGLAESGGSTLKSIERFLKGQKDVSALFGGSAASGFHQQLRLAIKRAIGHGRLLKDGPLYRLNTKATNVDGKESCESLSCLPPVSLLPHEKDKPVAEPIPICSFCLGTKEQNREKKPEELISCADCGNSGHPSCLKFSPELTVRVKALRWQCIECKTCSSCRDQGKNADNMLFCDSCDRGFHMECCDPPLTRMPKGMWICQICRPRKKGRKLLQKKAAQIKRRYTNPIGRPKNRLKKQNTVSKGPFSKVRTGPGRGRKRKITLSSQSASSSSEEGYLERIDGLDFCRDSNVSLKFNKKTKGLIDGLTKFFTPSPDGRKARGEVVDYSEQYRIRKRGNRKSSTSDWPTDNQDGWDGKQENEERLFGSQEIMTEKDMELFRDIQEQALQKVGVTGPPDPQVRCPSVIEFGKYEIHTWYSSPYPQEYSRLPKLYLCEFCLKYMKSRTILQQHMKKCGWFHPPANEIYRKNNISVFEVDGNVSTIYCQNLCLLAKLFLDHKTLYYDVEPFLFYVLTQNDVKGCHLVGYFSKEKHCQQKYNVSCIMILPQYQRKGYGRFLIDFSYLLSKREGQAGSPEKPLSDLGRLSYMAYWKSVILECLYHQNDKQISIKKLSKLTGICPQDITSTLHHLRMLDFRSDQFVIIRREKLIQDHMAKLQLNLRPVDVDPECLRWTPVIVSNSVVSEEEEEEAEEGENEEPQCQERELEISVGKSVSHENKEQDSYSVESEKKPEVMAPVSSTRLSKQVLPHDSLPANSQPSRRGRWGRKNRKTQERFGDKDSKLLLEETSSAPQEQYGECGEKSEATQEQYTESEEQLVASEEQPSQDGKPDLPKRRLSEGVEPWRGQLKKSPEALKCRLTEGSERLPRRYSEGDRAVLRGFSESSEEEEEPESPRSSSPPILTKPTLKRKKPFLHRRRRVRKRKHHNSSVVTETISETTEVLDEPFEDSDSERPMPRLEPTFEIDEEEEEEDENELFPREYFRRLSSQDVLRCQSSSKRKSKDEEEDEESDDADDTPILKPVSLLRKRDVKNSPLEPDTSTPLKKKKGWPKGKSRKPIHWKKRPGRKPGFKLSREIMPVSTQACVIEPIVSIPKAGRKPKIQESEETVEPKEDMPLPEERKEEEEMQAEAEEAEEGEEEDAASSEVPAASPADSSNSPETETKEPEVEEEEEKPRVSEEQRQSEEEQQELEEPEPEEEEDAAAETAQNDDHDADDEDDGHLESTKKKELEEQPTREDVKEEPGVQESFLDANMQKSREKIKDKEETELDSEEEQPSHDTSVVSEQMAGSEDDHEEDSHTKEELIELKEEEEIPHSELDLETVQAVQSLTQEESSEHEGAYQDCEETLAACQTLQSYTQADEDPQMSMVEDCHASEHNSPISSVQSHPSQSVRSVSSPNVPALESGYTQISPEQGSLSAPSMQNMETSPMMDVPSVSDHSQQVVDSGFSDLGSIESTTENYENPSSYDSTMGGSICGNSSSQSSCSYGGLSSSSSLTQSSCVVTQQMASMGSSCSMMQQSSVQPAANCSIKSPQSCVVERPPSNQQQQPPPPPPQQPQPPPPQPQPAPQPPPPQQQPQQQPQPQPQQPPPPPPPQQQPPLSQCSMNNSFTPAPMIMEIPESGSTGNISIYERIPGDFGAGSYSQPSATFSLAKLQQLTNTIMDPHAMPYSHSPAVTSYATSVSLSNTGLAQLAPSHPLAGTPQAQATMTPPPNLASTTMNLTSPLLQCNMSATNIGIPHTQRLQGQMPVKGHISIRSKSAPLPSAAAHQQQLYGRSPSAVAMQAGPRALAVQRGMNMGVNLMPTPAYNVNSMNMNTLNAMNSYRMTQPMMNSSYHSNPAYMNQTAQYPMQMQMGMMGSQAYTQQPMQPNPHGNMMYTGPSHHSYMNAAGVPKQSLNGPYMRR
Protocol: The activity of compounds was evaluated by measuring KAT6A protein levels as a readout of KAT6A degradation ability using western blot. These studies were conducted in the HCC1954 cell line which harbors a KAT6A copy number amplification. Cells were maintained in a 37° C. incubator at 5% CO2 in the following media: RPMI 1640, ATCC© Modification (Gibco, A10491-01) supplemented with 10% v/v FBS (Gibco, 26140-079) and 1% penicillin streptomycin (Gibco, 15140-122). Cells were seeded in 6-well plates at a density of 300,000 cells/well and allowed to attach overnight in an incubator. Compounds dissolved in DMSO were prepared at 1000× the desired final concentration such that the final percentage of DMSO was 0.1%. After 24 hours of treatment, cells were washed with phosphate buffered saline (PBS) (Corning, 21-040-CV), detached with trypsin-EDTA (Gibco, #25200-056), and pelleted in complete RPMI media in a microcentrifuge for 5 min at 1500 rpm. Protein was extracted from cell pellets by re-suspending in 15 uL PBS before adding 45 uL of lysis buffer composed of 4% SDS, 1× protease and phosphatase inhibitors, and 1 mM PMSF (Cell Signaling Technology, #8553S). Lysates were transferred to homogenizer columns (Omega Biotek, #HCR003) and centrifuged for 1.5 min at 12,000 rpm.
Homogenized lysates were quantified by BCA assay (ThermoScientific, Pierce BCA Protein Assay, #23223, #23224) as per manufacturer instructions. Samples were then diluted in 4× Laemmli buffer (Biorad, #1610747) to a 1× solution which was boiled at 95° C. for 5 minutes. To assess KAT6A protein expression, samples were run on 26 well gels (Biorad, 4-15% Criterion TGX Precast gels, #5671085) at 120V for approximately 1 hour. Protein was transferred to low-fluorescence PVDF membranes (Millipore Sigma, #IPFL00010) using Trans-Blot Turbo Transfer System (Biorad). Membranes were then probed with KAT6A (Cell Signaling Technology, #78462) and GAPDH (Cell Signaling Technology, #5174S) primary, and fluorescently tagged secondary antibodies (LI-COR, IRDye 800CW Goat anti-rabbit #926-32211; IRDye 680RD Goat anti-mouse #926-68070) at manufacturer recommended conditions using the iBind Flex western device (Thermofisher, SLF2000). Membranes were washed briefly in water and scanned with a LI-COR Odyssey CLx. Quantification of bands was assessed using Image Studio Ver 5.2. to normalize KAT6A expression to GAPDH loading controls before representing KAT6A expression as a percentage of that observed in DMSO.

T1 sequence (Q92794 whole entry): as above

SMILES | DC50 (HiBit tagged KAT6A) | Dmax (HiBit tagged KAT6A) | inhibition at 0.1 µM (KAT6A)
COc1cc(Cn2cccn2)cc2onc(NS(=O)(=O)c3cccc(N4CCC(CN5CCN(c6ccc7c(c6)c6cccnc6n7C6CCC(=O)NC6=O)CC5)C4)c3)c12 (stereo not shown) [Example 6, 3-[3-[[4-[9-(2,6-Dioxopiperidin-3-yl)pyrido[2,3-b]indol-6-yl]piperazin-1-yl]methyl]pyrrolidin-1-yl]-N-[4-methoxy-6-(pyrazol-1-ylmethyl)-1,2-benzoxazol-3-yl]benzenesulfonamide] | 0.01 to 0.1 µM | 50 to 75% | 50 to 75%
COc1cc(Cn2cccn2)cc2onc(NS(=O)(=O)c3cccc(N4CCN(CCC5CCN(c6ccc7c(c6)C(=O)N(C6CCC(=O)NC6=O)C7=O)CC5)CC4)c3)c12 (stereo not shown) [Example 3, N-(6-((1H-Pyrazol-1-yl)methyl)-4-methoxybenzo[d]isoxazol-3-yl)-3-(4-(2-(1-(2-(2,6-dioxopiperidin-3-yl)-1,3-dioxoisoindolin-5-yl)piperidin-4-yl)ethyl)piperazin-1-yl)benzenesulfonamide] | 0.01 to 0.1 µM | 50 to 75% | 0 to 50%
COc1cc(Cn2cccn2)cc2onc(NS(=O)(=O)c3cccc(N4CCN(CCCC5CCN(c6ccc7c(c6)C(=O)N(C6CCC(=O)NC6=O)C7=O)CC5)CC4)c3)c12 (stereo not shown) [Example 2, N-(6-((1H-Pyrazol-1-yl)methyl)-4-methoxybenzo[d]isoxazol-3-yl)-3-(4-(3-(1-(2-(2,6-dioxopiperidin-3-yl)-1,3-dioxoisoindolin-5-yl)piperidin-4-yl)propyl)piperazin-1-yl)benzenesulfonamide] |  | 25 to 50% | 50 to 75%
COc1cc(Cn2cccn2)cc2onc(NS(=O)(=O)c3cccc(N4CCN(CC5CCN(c6ccc7c(c6)C(=O)N(C6CCC(=O)NC6=O)C7=O)C5)CC4)c3)c12 (stereo not shown) [Example 1, N-(6-((1H-Pyrazol-1-yl)methyl)-4-methoxybenzo[d]isoxazol-3-yl)-3-(4-((1-(2-(2,6-dioxopiperidin-3-yl)-1,3-dioxoisoindolin-5-yl)pyrrolidin-3-yl)methyl)piperazin-1-yl)benzenesulfonamide] | 0.1 to 1 µM | 50 to 75% | 50 to 75%

Further lines, results first:

DC50 (HiBit tagged KAT6A) | Dmax (HiBit tagged KAT6A) | inhibition at 0.1 µM (KAT6A) | SMILES
< 0.01 µM | > 75% | > 75% | COc1cc(Cn2cccn2)cc2onc(NS(=O)(=O)c3cccc(N4CCN(CC5CCN(CC6CCN(c7ccc8c(c7)C(=O)N(C7CCC(=O)NC7=O)C8=O)CC6)CC5)CC4)c3)c12 (stereo not shown) [Example 7, 3-[4-[[1-[[1-[2-(2,6-Dioxopiperidin-3-yl)-1,3-dioxoisoindol-5-yl]piperidin-4-yl]methyl]piperidin-4-yl]methyl]piperazin-1-yl]-N-[4-methoxy-6-(pyrazol-1-ylmethyl)-1,2-benzoxazol-3-yl]benzenesulfonamide]
0.01 to 0.1 µM | 50 to 75% | 50 to 75% | COc1cc(Cn2cccn2)cc2onc(NS(=O)(=O)c3cccc(N4CC5(CN(CC6CCN(c7ccc8c(c7)C(=O)N(C7CCC(=O)NC7=O)C8=O)C6)C5)C4)c3)c12 (stereo not shown) [Example 11, 3-[6-[[1-[2-(2,6-dioxopiperidin-3-yl)-1,3-dioxoisoindol-5-yl]pyrrolidin-3-yl]methyl]-2,6-diazaspiro[3.3]heptan-2-yl]-N-[4-methoxy-6-(pyrazol-1-ylmethyl)-1,2-benzoxazol-3-yl]benzenesulfonamide]
< 0.01 µM | > 75% | > 75% | COc1cc(Cn2cccn2)cc2onc(NS(=O)(=O)c3cccc(N4CC5(CCN(CC6CCN(c7ccc8c(c7)C(=O)N(C7CCC(=O)NC7=O)C8=O)C6)CC5)C4)c3)c12 (stereo not shown) [Example 5, 3-[7-[[1-[2-(2,6-Dioxopiperidin-3-yl)-1,3-dioxoisoindol-5-yl]pyrrolidin-3-yl]methyl]-2,7-diazaspiro[3.5]nonan-2-yl]-N-[4-methoxy-6-(pyrazol-1-ylmethyl)-1,2-benzoxazol-3-yl]benzenesulfonamide]
 | 25 to 50% | 50 to 75% | COc1cc(Cn2cccn2)cc2onc(NS(=O)(=O)c3cccc(N4CCN(CC5CCN(c6ccc7c(c6)CN(C6CCC(=O)NC6=O)C7=O)C5)CC4)c3)c12 (stereo not shown) [Example 10, 3-[4-[[1-[2-(2,6-Dioxopiperidin-3-yl)-1-oxo-3H-isoindol-5-yl]pyrrolidin-3-yl]methyl]piperazin-1-yl]-N-[4-methoxy-6-(pyrazol-1-ylmethyl)-1,2-benzoxazol-3-yl]benzenesulfonamide]
